Measured values from patent publication US4007210A, “Novel 3-triphenylmethoxy-1-alkynes, 3-triphenylmethoxy-1-trans-alkenyl-dialkyl-alanes, and lithium 3-triphenyl-methoxy-1-trans-alkenyl-dialkyl-alanates” (American Cyanamid Company, priority 1975, dated 1977).

Columns and labels:
[1] = system: diastolic blood pressure; test: hypotensive activity in anesthetized rats; type: in vivo, Male Wistar strain rats; details: intravenous, minimal dose for a decrease of about 10 mm. in diastolic blood pressure; for minimal effective dose: Rattus norvegicus
Method: This procedure is a modification of the technique described by Pike et al., Prostaglandins, Nobel Symposium 2, Stockholm, June, 1966; p. 165.
Male Wistar strain rats (Royal Hart Farms) averaging approximately 250 grams in weight were fastened to rat boards in a supine position by means of canvas vests and limb ties. The femoral area was infiltrated subcutaneously with lidocaine and the iliac artery and vein were exposed and cannulated. Arterial blood pressure (systolic/diastolic) was recorded using a Statham P23 Db pressure, the animals were anethetized before use with pentobarbital, 30 mg./kg. of body weight intravenously, and also were given hexamethoxium bitartrate, 2 mg/kg. of body weight intravenously. The test compounds were prepared by ultrasonic dispersion in a saline-Tween 80 vehicle. A constant intravenous dose volume of 0.5 ml. was administered and test doses ranged from 0.1 to 10.0 mg./kg. of body weight. Increasing or decreasing doses were selected depending on the dose response obtained. In Table 2B below are set forth the minimal doses required to produce a decrease of about 10 mm. in diastolic blood pressure for typical compounds of the present invention.

[2] = system: bronchospasms elicited by acetylcholine; test: bronchodilator activity, Konzett procedure, acetylcholine; type: in vivo, guinea pigs; details: Cavia porcellus; three logarithmic cumulative intravenous doses; column head printed choline; read-out: Bronchodilator Activity (Konzett Assays) ED50, choline
Method: (§1) Bronchodilator activity was determined in guinea pigs against bronchospasms elicited by intravenous injections of 5-hydroxytryptamine, histamine or acetylcholine by the Konzett procedure. [See J. Lulling, P. Lievens, F. El Sayed and J. Prignot, Arzeimittel-Forschung, 18 995 (1968).]
(§2) In the table which follows bronchodilator activity for representative compounds of this invention against one or more of the three spasmogenic agents is expressed as an ED50 determined from the results obtained with three logarithemic cumulative intravenous doses.

[3] = system: gastric acid secretion; test: gastric acid secretion inhibition, "Shay rat" procedure; type: in vivo, rats (male, CFE strain); details: intraduodenal dose 100 mg./kg. of body weight; 3 hours; 20% or more = active
Method: The novel compounds of the present invention are also effective inhibitors of gastric acid secretion and of ulcer development in experimental animals, and thus are potentially valuable as agents for the control of gastric acid secretion and of gastric erosion and as anti-ulcer agents. Gastric acid secretion inhibitory action is usually measured by the "Shay rat" procedure ^(1,2) with some modifications as follows.
The rats (male, CFE strain) were starved for 48 hours (water was given ad libitum) to permit evacuation of stomach contents. On the morning of the experiment, under ether anesthesia, the abdominal region was shaved and a midline incision (1-1 1/2 in.) was made with a scapel. With the help of a closed curved hemostate the duodenum was picked up. […]
The test compound or the vehicle, usually […], were injected into the duodenum as close as possible to the first ligature. […] The supernatant was collected, volume measured and recorded, 2 drops of a phenolphthalein indicator (1% in 95% ethanol) were added and the solution was titrated with 0.02N NaOH (or with 0.04N NaOH when large volumes of stomach contents were encountered) to pH 8.4 (because of usual coloring of the stomach contents, phenolphthalein was only used to permit visual indication that the end point was near) and the amount of acid present was calculated. […]

[4] = system: indomethacin ulcers of the stomach; test: protection against the ulcerogenic properties of indomethacin (ulcer score); type: in vivo, rats; details: 2.5 or lower = active
Method: The compounds of this invention provide protection against the ulcerogenic properties of indomethacin. This assay was carried out in the following manner.
Rats were starved for 48 hours (water was given ad libitum). Indomethacin (20 mg./kg. of body weight) was administered by the subutaneous route and one-half the dose of the test compound was administered by gavage at the same time. After three hours, the second half of the test compound was administered also by Gavage. Five hours after the administration of indomethacin the animals were decapitated and the stomachs removed. The stomachs were washed with distilled water, blotted on gauze, cut along the larger curvature, and the contents rinsed with distilled water. The stomachs were spread out, pinned on a cork and visualized under magnifying glass for ulcers. The criteria for scoring of ulcers was as previously reported. [Abdel-Galil et al. Brit. J. Pharmac. Chemotherapy 33:1-14 (1968)].
1 Petechial hemorrhage or pin point ulcer
3 Many ulcers, a few large
4 Many ulcers, mainly large
Control animals treated with indomethacin but not test compound consistently give scores of about 3.0-3.5. Control animals treated with neither indomethacin nor test compound give scores of about 0.5-0.8. Compounds producing a score of 2.5 or lower are considered to be active.

[5] = system: bronchospasms elicited by 5-hydroxytryptamine; test: bronchodilator activity, Konzett procedure, 5-hydroxytryptamine; type: in vivo, guinea pigs; details: Cavia porcellus; three logarithmic cumulative intravenous doses; spasmogen 5-hydroxytryptamine; read-out: Bronchodilator Activity (Konzett Assays) ED50, 5-hydroxytryptamine
Method: as §1, §2

[6] = system: bronchospasms elicited by histamine; test: bronchodilator activity, Konzett procedure, histamine; type: in vivo, guinea pigs; details: Cavia porcellus; three logarithmic cumulative intravenous doses; spasmogen histamine; read-out: Bronchodilator Activity (Konzett Assays) ED50, histamine
Method: as §1, §2

[7] = total oral dose 25 mg./kg. of body weight, control score 3.2, scale 0 (normal stomach) to 4 (many ulcers, mainly large)

Compound: CCCCC[C@H](O)/C=C/[C@H]1CCCC(=O)[C@@H]1CCCCCCC(=O)O (relative stereo) [9-oxo-10a-homo-15-hydroxy-13-trans-prostenoic acid]
- minimal effective dose [1]: 2 mg/kg

Compound: CCCC#CC(O)CC[C@H]1CCC(=O)[C@@H]1CCCCCCC(=O)O (stereo partly shown) [9-oxo-15-hydroxy-16-prostynoic acid]
- ED50 [2]: 0.00032 mg/kg

Compound: CCCCCC(O)/C=C/[C@H]1CCC(=O)[C@@H]1CCCCC(C)(C)CC(=O)O (relative stereo) [9-oxo-15-hydroxy-3,3-dimethyl-13-trans-prostenoic acid]
- Percent Inhibition (gastric acid secretion) [3]: 51%

Compound: CCCCC[C@H](O)/C=C/[C@H]1CCC(=O)[C@@H]1CCCCOCC(=O)OCC (relative stereo) [Ethyl 3-oxa-9-oxo-15-hydroxy-13-trans-prostenoate]
- minimal effective dose [1]: 0.2 mg/kg

Compound: CCCCC(CC)C(O)/C=C/[C@H]1CCC(=O)[C@@H]1CCCCCCC(=O)O (stereo partly drawn) [9-oxo-15-hydroxy-16-ethyl-13-trans-prostenoic acid]
- Score, Treated [4, 7]: 1.7

Compound: CCCCC[C@@H](O)/C=C/[C@H]1CCC(=O)[C@@H]1CCCCOCC(=O)OCC (relative stereo) [Ethyl 3-oxa-9-oxo-15-epi-hydroxy-13-trans-prostenoate]
- minimal effective dose [1]: 0.2 mg/kg

Compound: CCCCC[C@H](O)/C=C/[C@H]1CCC(=O)[C@@H]1CCCCCC(C)C(=O)O (stereo partly drawn) [2-methyl-9-oxo-15-hydroxy-13-trans-prostenoic acid]
- minimal effective dose [1]: 2 mg/kg

Compound: CC/C=C\CC(C)(O)/C=C/C1CCC(=O)C1C/C=C\CCCC(=O)O (stereo not drawn) [9-oxo-15-hydroxy-15-methyl-5-cis,13-trans,17-cis-prostatrienoic acid]
- Minimal effective hypotensive dose [1]: < 2 mg./kg. of body wt.

Compound: CCCCCC(O)/C=C/C1CCC(=O)C1(C)CCCCCCC(=O)O (stereo not drawn) [9-oxo-8β-methyl-15-hydroxy-13-trans-prostenoic acid]
- Score, Treated ([4]; total oral dose 12.5 mg./kg. of body weight, control score 3.0, scale 0-4): 2.0
- Minimal effective hypotensive dose [1]: 2 mg./kg. of body wt.

Compound: CCCCC[C@@H](O)/C=C/[C@H]1CCC(=O)[C@@H]1CCCCSCC(=O)O (relative stereo) [9-oxo-3-thia-15-epi-hydroxy-13-trans-prostenoic acid]
- Score, Treated [4, 7]: 2.3
- minimal effective dose [1]: 2 mg/kg

Compound: CCCCC[C@H](O)/C=C/[C@H]1CCC(=O)[C@@H]1CCCCCC(CC)C(=O)O (stereo partly drawn) [9-oxo-15-hydroxy-2-ethyl-13-trans-prostenoic acid]
- ED50 [5]: 0.000329 mg/kg
- ED50 [2]: 0.000533 mg/kg
- Score, Treated ([4]; total oral dose 50 mg./kg. of body weight, control score 3.0, scale 0-4): 2.2
- ED50 [6]: 0.000145 mg/kg
- minimal effective dose [1]: < 2 mg/kg

Compound: CC/C=C\CC(O)/C=C/C1CCC(=O)C1C/C=C\CCCC(=O)O (stereo not drawn) [9-oxo-15-hydroxy-5-cis,13-trans,17-cis-prostatrienoic acid]
- Minimal effective hypotensive dose [1]: < 2 mg./kg. of body wt.

Compound: CCCCC[C@H](O)/C=C/[C@H]1CCC(=O)[C@@H]1CCCCSCC(=O)O (relative stereo) [9-oxo-3-thia-15-hydroxy-13-trans-prostenoic acid]
- minimal effective dose [1]: 2 mg/kg

Compound: CCCCCC(O)/C=C\[C@H]1CCC(=O)[C@@H]1CCCCCCC(=O)O (relative stereo) [9-oxo-15-hydroxy-13-cis-prostenoic acid, 15-hydroxy-9-oxo-13-cis-prostenoic acid]
- ED50 [5]: 0.000106 mg/kg
- Score, Treated ([4]; total oral dose 100 mg./kg. of body weight, control score 3.0, scale 0-4): 1.3

Compound: CCCCC[C@@H](O)/C=C/[C@H]1CCCC(=O)[C@@H]1CCCCCCC(=O)O (relative stereo) [9-oxo-10a-homo-15-epi-hydroxy-13-trans-prostenoic acid]
- minimal effective dose [1]: 2 mg/kg

Compound: CCCCC[C@H](O)/C=C/[C@H]1CCC(=O)[C@@H]1CCCCCC(C(=O)O)c1ccccc1 (stereo partly drawn) [2-phenyl-9-oxo-15-hydroxy-13-trans-prostenoic acid]
- minimal effective dose [1]: 8 mg/kg

Compound: CCCCC[C@@H](O)/C=C/[C@H]1CCC(=O)[C@@H]1CCCCCC(C)C(=O)O (stereo partly drawn) [2-methyl-9-oxo-15-epi-hydroxy-13-trans-prostenoic aid]
- minimal effective dose [1]: 2 mg/kg

Compound: CCCCC[C@H](O)/C=C/[C@H]1CCC(=O)[C@@H]1CCCCOCC(=O)O (relative stereo) [3-oxa-9-oxo-15-hydroxy-13-trans-prostenoic acid]
- minimal effective dose [1]: < 2 mg/kg
